# Data taken from PubChem BioAssay AID330 (DTP/NCI, 2004).
# Several values for one entry are separate records, joined by “and”; a condition that tells them apart may be missing. Equal values may be shown once. Inconclusive results and toxic doses are left out.
# Test system: P388 leukemia ip, CD2F1 mice, survival T/C
# Test: NCI In Vivo Anticancer Drug Screen. Data for tumor model P388 Leukemia (intraperitoneal) in CD2F1 (CDF1) mice
# Conditions: endpoint: median survival time, higher = longer survival
# Method in brief: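 Mice carrying the transplanted tumor received test compound or vehicle. Survival was recorded in each group, and the value is the treated-group measurement divided by that of the vehicle-treated control group.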
# [1] = dose: 50.0 mg/kg/injection, schedule: Q01DX005 (ip), vehicle: Klucel (hydroxypropylcellulose) (HPC)
# [2] = dose: 100.0 mg/kg/injection, schedule: Q01DX005 (ip), vehicle: Klucel (hydroxypropylcellulose) (HPC)
# [3] = dose: 200.0 mg/kg/injection, schedule: Q01DX005 (ip), vehicle: Klucel (hydroxypropylcellulose) (HPC)
# [4] = dose: 50.0 mg/kg/injection, schedule: Q01DX005 (ip), vehicle: saline
# [5] = dose: 100.0 mg/kg/injection, schedule: Q01DX005 (ip), vehicle: saline
# [6] = dose: 200.0 mg/kg/injection, schedule: Q01DX005 (ip), vehicle: saline
# [7] = dose: 100.0 mg/kg/injection, schedule: Q01DX001 (ip), vehicle: saline with Tween-80
# [8] = dose: 200.0 mg/kg/injection, schedule: Q01DX001 (ip), vehicle: saline with Tween-80
# [9] = dose: 7.5 mg/kg/injection, schedule: Q01DX005 (ip), vehicle: Klucel (hydroxypropylcellulose) (HPC)
# [10] = dose: 15.0 mg/kg/injection, schedule: Q01DX005 (ip), vehicle: Klucel (hydroxypropylcellulose) (HPC)
# [11] = dose: 100.0 mg/kg/injection, schedule: Q04DX002 (ip), vehicle: saline with Tween-80
# [12] = dose: 200.0 mg/kg/injection, schedule: Q04DX002 (ip), vehicle: saline with Tween-80
# [13] = dose: 400.0 mg/kg/injection, schedule: Q04DX002 (ip), vehicle: saline with Tween-80
# [14] = dose: 100.0 mg/kg/injection, schedule: Q01DX009 (ip), vehicle: saline
# [15] = dose: 200.0 mg/kg/injection, schedule: Q01DX009 (ip), vehicle: saline
smiles,measurement,setting,value
C/C(=N\N(C)/C=N/S(C)(=O)=O)c1ccccc1,T/C,[1],98 % of control
same,T/C,[2],95 % of control
same,T/C,[3],104 % of control
C=C1C(=O)OC2/C=C(\C)C(OC(C)=O)C/C=C(\C)CC(OC(=O)/C(=C/CO)CO)C12 (stereo not drawn),T/C,"dose: 100.0 mg/kg/injection, schedule: Q01DX001 (ip), vehicle: Klucel (hydroxypropylcellulose) (HPC)",99 % of control
same,T/C,"dose: 200.0 mg/kg/injection, schedule: Q01DX001 (ip), vehicle: Klucel (hydroxypropylcellulose) (HPC)",99 % of control
same,T/C,"dose: 400.0 mg/kg/injection, schedule: Q01DX001 (ip), vehicle: Klucel (hydroxypropylcellulose) (HPC)",123 % of control
CNC(=O)c1n[nH]c(=S)[nH]c1=O,T/C,[1],111 % of control
same,T/C,[4],100 % of control
same,T/C,[2],104 % of control
same,T/C,[5],101 % of control
same,T/C,[3],101 % of control
same,T/C,[6],101 % of control
Nc1cc2ccc3ncccc3c2c2cccnc12,T/C,"dose: 100.0 mg/kg/injection, schedule: Q04DX003 (ip), vehicle: saline with Tween-80",103 % of control
same,T/C,"dose: 200.0 mg/kg/injection, schedule: Q04DX003 (ip), vehicle: saline with Tween-80",97 % of control
same,T/C,"dose: 400.0 mg/kg/injection, schedule: Q04DX003 (ip), vehicle: saline with Tween-80",97 % of control
O=C(O)c1ccc2ncc(-c3ccccc3)nc2c1,T/C,[1],100 % of control
same,T/C,[2],100 % of control
same,T/C,[3],95 % of control
CCN(CC)CCn1c2c(c3ccc(OC)cc31)CCN1CC3CC(OC(=O)c4cc(OC)c(OC)c(OC)c4)C(OC)C(C(=O)OC)C3CC21 (stereo not drawn),T/C,"dose: 25.0 mg/kg/injection, schedule: Q01DX005 (ip), vehicle: saline",97 % of control
same,T/C,[4],96 % of control
same,T/C,[5],101 % of control
same,T/C,[6],106 % of control
Cn1c(N)c(N=Nc2cccnc2)c(=O)n(C)c1=O,T/C,[7],95 % of control
same,T/C,[8],98 % of control
same,T/C,"dose: 400.0 mg/kg/injection, schedule: Q01DX001 (ip), vehicle: saline with Tween-80",95 % of control
O=S1(=O)O[C@H]2CCCC[C@H]2O1,T/C,"dose: 1.75 mg/kg/injection, schedule: Q01DX009 (ip), vehicle: Klucel (hydroxypropylcellulose) (HPC)",100 % of control
same,T/C,"dose: 3.5 mg/kg/injection, schedule: Q01DX009 (ip), vehicle: Klucel (hydroxypropylcellulose) (HPC)",98 % of control
same,T/C,"dose: 7.0 mg/kg/injection, schedule: Q01DX009 (ip), vehicle: Klucel (hydroxypropylcellulose) (HPC)",101 % of control
same,T/C,"dose: 14.0 mg/kg/injection, schedule: Q01DX009 (ip), vehicle: Klucel (hydroxypropylcellulose) (HPC)",98 % of control
c1ccc2c(SCCCCCCCCCCCSc3c4ccccc4nc4ccccc34)c3ccccc3nc2c1,T/C,"dose: 60.0 mg/kg/injection, schedule: Q01DX005 (ip), vehicle: Klucel (hydroxypropylcellulose) (HPC)",106 % of control
same,T/C,"dose: 120.0 mg/kg/injection, schedule: Q01DX005 (ip), vehicle: Klucel (hydroxypropylcellulose) (HPC)",101 % of control
same,T/C,"dose: 240.0 mg/kg/injection, schedule: Q01DX005 (ip), vehicle: Klucel (hydroxypropylcellulose) (HPC)",90 % of control
CCS,T/C,"dose: 25.0 mg/kg/injection, schedule: Q01DX009 (ip), vehicle: saline with Tween-80",86 % of control
same,T/C,"dose: 50.0 mg/kg/injection, schedule: Q01DX009 (ip), vehicle: saline with Tween-80",91 % of control
same,T/C,"dose: 100.0 mg/kg/injection, schedule: Q01DX009 (ip), vehicle: saline with Tween-80",92 % of control
same,T/C,"dose: 200.0 mg/kg/injection, schedule: Q01DX009 (ip), vehicle: saline with Tween-80",88 % of control
Cc1c(Cc2ccccc2)c(N2CCOCC2)n2c(nc3ccccc32)c1C#N,T/C,"dose: 60.0 mg/kg/injection, schedule: Q01DX005 (ip), vehicle: saline with Tween-80",91 % of control
same,T/C,"dose: 120.0 mg/kg/injection, schedule: Q01DX005 (ip), vehicle: saline with Tween-80",88 % of control
same,T/C,"dose: 240.0 mg/kg/injection, schedule: Q01DX005 (ip), vehicle: saline with Tween-80",91 % of control
O=C(/C=C/c1ccccc1)C/C(=N/O)C(=O)NO,T/C,"dose: 60.0 mg/kg/injection, schedule: Q01DX005 (ip), vehicle: saline",104 % of control
same,T/C,"dose: 120.0 mg/kg/injection, schedule: Q01DX005 (ip), vehicle: saline",101 % of control
same,T/C,"dose: 240.0 mg/kg/injection, schedule: Q01DX005 (ip), vehicle: saline",103 % of control
COc1cc(/C=C/C(C)=N/NC(N)=S)cc(OC)c1OC,T/C,"dose: 3.75 mg/kg/injection, schedule: Q01DX005 (ip), vehicle: Klucel (hydroxypropylcellulose) (HPC)",102 % of control
same,T/C,[9],105 % of control
same,T/C,[10],99 % of control
same,T/C,"dose: 30.0 mg/kg/injection, schedule: Q01DX005 (ip), vehicle: Klucel (hydroxypropylcellulose) (HPC)",90 % of control and 94 % of control
COc1cccc2c1C(=O)c1c(O)c3c(c(O)c1C2=O)C[C@@](O)(/C(C)=N/NC(=O)c1ccccc1)C[C@@H]3OC1CC(N(C)C)C(O)C(C)O1 (stereo partly drawn),T/C,"dose: 0.78 mg/kg/injection, schedule: Q01DX009 (ip), vehicle: water",165 % of control
same,T/C,"dose: 1.56 mg/kg/injection, schedule: Q01DX009 (ip), vehicle: water",165 % of control
same,T/C,"dose: 3.13 mg/kg/injection, schedule: Q01DX009 (ip), vehicle: water",183 % of control and 192 % of control
same,T/C,"dose: 12.5 mg/kg/injection, schedule: Q01DX009 (ip), vehicle: water",103 % of control
Cn1c(CCC(=O)O)c(CC(=O)O)c2ccccc21,T/C,[11],99 % of control
same,T/C,[12],97 % of control
same,T/C,[13],108 % of control
CN(C)CCN1C(=O)Cc2ccccc2C1=O,T/C,"dose: 12.5 mg/kg/injection, schedule: Q01DX001 (ip), vehicle: saline",111 % of control
same,T/C,"dose: 25.0 mg/kg/injection, schedule: Q01DX001 (ip), vehicle: saline",109 % of control
same,T/C,"dose: 50.0 mg/kg/injection, schedule: Q01DX001 (ip), vehicle: saline",101 % of control
CC1C(=O)C(Cl)(Cl)C1(C)C (stereo not drawn),T/C,[7],106 % of control
same,T/C,[8],110 % of control
CCCCCCC(=O)/C=C/c1ccc(OC(=O)c2ccc(Cl)cc2)cc1,T/C,"dose: 6.25 mg/kg/injection, schedule: Q01DX009 (ip), vehicle: saline",97 % of control
same,T/C,"dose: 12.5 mg/kg/injection, schedule: Q01DX009 (ip), vehicle: saline",94 % of control
same,T/C,"dose: 25.0 mg/kg/injection, schedule: Q01DX009 (ip), vehicle: saline",94 % of control
same,T/C,[14],92 % of control
same,T/C,[15],92 % of control
COCCOC(=O)Cc1ccc(OC)c(OC)c1,T/C,[14],91 % of control
same,T/C,[15],100 % of control
same,T/C,"dose: 400.0 mg/kg/injection, schedule: Q01DX009 (ip), vehicle: saline",104 % of control
CC(C)(O)CCC(=O)[C@](C)(O)[C@H]1[C@H](O)C[C@@]2(C)[C@@H]3CC=C4[C@@H](C[C@@H](O)[C@@H](O)C4(C)C)[C@]3(C)C(=O)C[C@]12C,T/C,"dose: 1.25 mg/kg/injection, schedule: Q01DX005 (ip), vehicle: saline with Tween-80",100 % of control
same,T/C,"dose: 2.5 mg/kg/injection, schedule: Q01DX005 (ip), vehicle: saline with Tween-80",97 % of control
same,T/C,"dose: 5.0 mg/kg/injection, schedule: Q01DX005 (ip), vehicle: saline with Tween-80",95 % of control
same,T/C,"dose: 10.0 mg/kg/injection, schedule: Q01DX005 (ip), vehicle: saline with Tween-80",104 % of control
CC(=O)C1C(=O)OC(C)(C)C1C=C(Cl)Cl (stereo not drawn),T/C,[11],101 % of control
same,T/C,[12],107 % of control
same,T/C,[13],109 % of control
C1CSCN1,T/C,[4],107 % of control
same,T/C,[5],100 % of control
same,T/C,[6],115 % of control
C[N-]N(C)C(=O)[S-].C[N-]N(C)C(=O)[S-].C[N-]N(C)C(=O)[S-].[Co],T/C,"dose: 25.0 mg/kg/injection, schedule: Q04DX003 (ip), vehicle: saline with Tween-80",103 % of control
same,T/C,"dose: 50.0 mg/kg/injection, schedule: Q04DX003 (ip), vehicle: saline with Tween-80",103 % of control
CC(NNC(=S)N1CCCC1)c1cccc[n+]1[O-] (stereo not drawn),T/C,"dose: 50.0 mg/kg/injection, schedule: Q01DX005 (ip), vehicle: saline with Tween-80",101 % of control
same,T/C,"dose: 100.0 mg/kg/injection, schedule: Q01DX005 (ip), vehicle: saline with Tween-80",100 % of control
same,T/C,"dose: 200.0 mg/kg/injection, schedule: Q01DX005 (ip), vehicle: saline with Tween-80",94 % of control
CNC(=O)OCc1c(COC(=O)NC)c2n(c1C)-c1ccc(OC)cc1CCC2,T/C,[9],119 % of control
same,T/C,[10],122 % of control
